Columns and labels:
rat UT-B = biological target: T1, rat UT-B (Rattus norvegicus, UniProt P97689); assay: UT-B inhibition, erythrocyte lysis assay; assay type: cell-based
T1 construct: endogenous in cells; host or cells: rat erythrocytes (whole rat blood)
T1 sequence (P97689 1-384): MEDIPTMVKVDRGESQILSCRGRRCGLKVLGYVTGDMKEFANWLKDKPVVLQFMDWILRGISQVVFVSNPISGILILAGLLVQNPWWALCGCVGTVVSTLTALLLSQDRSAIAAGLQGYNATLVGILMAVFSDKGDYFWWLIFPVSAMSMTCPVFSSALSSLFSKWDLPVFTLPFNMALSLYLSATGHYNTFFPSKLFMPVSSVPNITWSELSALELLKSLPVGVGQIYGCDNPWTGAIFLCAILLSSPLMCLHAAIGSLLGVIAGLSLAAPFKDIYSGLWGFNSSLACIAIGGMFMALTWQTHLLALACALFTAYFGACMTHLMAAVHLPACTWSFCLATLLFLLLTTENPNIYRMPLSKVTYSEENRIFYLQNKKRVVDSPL
Protocol: As described (see, e.g., Levin et al. (2007) FASEB J. 21, 551-563), whole rat blood was diluted to a hematocrit of ˜1.5% in PBS containing 1.25 M acetamide and 5 mM glucose. Erythrocyte suspensions (100 μL) were added to 96-well round-bottom microplates and test compounds (1 μL) were added. After 15 min incubation, 20 μL of the erythrocyte suspension was added rapidly to each well containing 180 μL of PBS. Following vigorous mixing, erythrocyte lysis was quantified by absorbance at 710 nm. Non-lysed controls (isosmolar buffer) and lysed controls (0.7 mM phloretin) were added in each plate as negative and positive controls, respectively. Percentage erythrocyte lysis was computed as: % lysis=100% (Aneg−Atest)/(Aneg−Apos), where A is absorbance at 710 nm.
Inhibitor selectivity for rat UT-A1 versus UT-B was investigated using an erythrocyte lysis assay of rat UT-B urea transport, which involved measurement of hypotonic lysis (by near-infrared absorbance) of acetamide-loaded erythrocytes following rapid dilution into acetamide-free buffer.

[1] = In vitro metabolic stability in rat hepatic microsomes; assay type: in vitro ADME; details: at 60 min, 5 μM, NADPH
Protocol: As described (see, e.g., Snyder et al. (2011) J Med Chem. 54, 5468-5477), compounds (each 5 μM) were incubated for specified times at 37° C. with rat liver microsomes (1 mg protein/mL; Sigma-Aldrich, St. Louis, Mo.) in potassium phosphate buffer (100 mM) containing 1 mM NADPH. The mixture was then chilled on ice, and 0.5 mL of ice-cold EtOAc was added. Samples were centrifuged for 15 min at 3,000 rpm, the supernatant evaporated to dryness, and the residue was dissolved in 100 μl mobile phase (acetonitrile: water [3:1], containing 0.1% formic acid) for LC/MS. Reverse-phase HPLC separations were carried out using a XTERRA MS C18 column (2.1 mm×100 mm, 3.5 m) equipped with a solvent delivery system (Waters model 2695, Milford, Mass.). The solvent system consisted of a linear gradient from 5 to 95% acetonitrile containing 0.1% formic acid, run over 16 min (0.2 mL/min flow rate).
In vitro metabolic stability was measured by LC/MS after incubation with rat hepatic microsomes and NADPH.

SMILES	selectivity for UT-A1 versus UT-B (rat UT-B; rat UT-A1 versus rat UT-B)	metabolism [1] [%]	IC50 (rat UT-B; rat erythrocytes) [µM]
CC(=O)Nc1ccc(-c2csc(-c3c[nH]c4ccccc34)n2)cc1 [UTA1inh-E02, N-(4-(2-(1H-indol-3-yl)thiazol-4-yl)phenyl)acetamide]	high selectivity	~50	–
COc1ccc(C)cc1S(=O)(=O)Nc1ccc(Cl)c(N2CCCS2(=O)=O)c1 [UTA1inh-F11, N-[4-Chloro-3-(1,1-dioxido-1,2-thiazolidin-2-yl)phenyl]-2-methoxy-5-methylbenzene-sulfonamide]	–	~50	10
